What was measured:
[1] = test system: carbonic anhydrase II (CAII); assay: Detection of small molecules by QCRS on CAII surface; format: binding; settings: for frequency shift on CAII surface: 12.5 μM
Protocol: The CAII surface was then used to capture 4-carboxybenzenesulfonamide (CBS […] in running PBSS buffer+0.25% MeOH).
The same CAII surface was used to detect 12.5 μM 4-carboxybenzenesulfonamide, and 12.5 μM 5-(dimethylamino)-1-naphthalenesulfonamide.

mouse anti-biotin IgG = assay: Detection of proteins by SPR: biotinylated BSA on Dextran T70-COOH-PDEA (428018) surfaces; format: binding; settings: 10 μg/ml
Protocol: 4 flow cells having polymer treated surfaces were prepared. Flow cells (FC) 1, 2 & 3—were all activated by exposure for 7 min to […] (200 mM/50 mM). FC 3 only was then treated for 7 min with 50 μg/ml mouse anti-biotin IgG in 10 mM NaOAc buffer pH 4.5. FC 2 only was coupled to 50 μg/ml an irrelevant mouse monoclonal IgG in 10 mM NaOAc buffer pH 4.5 (7 minute exposure). FC 1, 2, 3—were capped by treatment for 5 min with ethanolamine (1 M, pH 8.5). FC 4 comprised untreated polymer.
Dextran T70-COOH-PDEA (428018) was deposited and mouse anti-biotin IgG was immobilised using the same procedure as in Example 7. The measurement of the immobilisation is shown in FIG. 12, which again is a graph of response (RU) against time (seconds).

Compound	frequency shift on CAII surface [1]	frequency shift on capture by CAII surface ([1]; 25 μm in running PBSS buffer + […] MeOH)	binding to anti-biotin IgG surface (FC3) (mouse anti-biotin IgG; FC3)	binding to control surfaces (FC1, 2 and 4) (mouse anti-biotin IgG; capped polymer, irrelevant mouse IgG, unactivated polymer)
NS(=O)(=O)c1ccc(C(=O)O)cc1 [4-carboxybenzenesulfonamide]	2.5 Hz	6 Hz		
CN(C)c1cccc2c(S(N)(=O)=O)cccc12 [5-(dimethylamino)-1-naphthalenesulfonamide]	1.2 Hz			
biotinylated BSA: biotinylated bovine serum albumin used as analyte			Specific binding occurs	minimal non-specific binding
